Laboratory results reported in patent US20220089609A1, “SUBSTITUTED QUINAZOLINONE DERIVATIVES AND THEIR USE AS POSITIVE ALLOSTERIC MODULATORS OF MGLUR4” (DOMAIN THERAPEUTICS, priority 2018, published 2022).
Counter-ions that a name gives are not always drawn.

biological target: T1, human mGluR4 (hmGluR4) (Homo sapiens, UniProt Q14833); assay: Calcium assay EC50 determination, positive allosteric modulator activity on hmGluR4 transiently over-expressed in HEK-293 cells; type: cell-based; conditions: PAM mode with EC20 glutamate; hmGluR4 in HEK-293 cells; intracellular calcium (Fluo4AM); read-out: mGluR4 positive allosteric modulator activity, half maximal effective concentration (EC50)
T1 construct: expressed in transfected cells; host or cells: HEK-293 cells, transient co-transfection by electroporation
Description: Compounds are tested successively for their agonist and positive allosteric modulator activities on human mGluR4 (hmGluR4) transiently over-expressed in HEK-293 cells. Compounds exert agonist activity if, by themselves in absence of glutamate, they are able to activate hmGluR4; and they exert positive allosteric modulator activity if they increase the action of glutamate.
HEK-293 cells are maintained in Modified Eagle's Medium supplemented with 10% Foetal Calf Serum, 1% Penicillin/Streptomycin and 1% non-essential amino acids at 37° C./5% CO2.
Cells are co-transfected by electroporation with four DNA plasmids encoding hmGluR4, a chimeric G protein allowing redirection of the activation signal to intracellular calcium pathway, and glutamate transporters to decrease extracellular glutamate concentration so as to limit receptor desensitization. After transfection, cells are cultured for 24 h at 37° C./5% CO2.
Calcium Assay EC50 determination
Receptor activity is detected by changes in intracellular calcium measured using the fluorescent Ca^2+ sensitive dye, Fluo4AM (Molecular Probes).
On the day of the assay, culture medium is aspirated and replaced during 3 hours by medium without serum supplemented with 1% Glutamax, 1% Penicillin/Streptomycin and 1% non-essential amino acids. Then, cells are washed with freshly prepared buffer B (HBSS 1× (PAA), Hepes 20 mM, MgSO4-7H2O 1 mM, Na2CO3 3.3 mM, CaCl2-2H2O 1.3 mM, 0.1% BSA, Probenecid 2.5 mM) and loaded at 37° C. in 5% CO2 for 1.5 hours with buffer B containing 1 μM Fluo4AM, 0.1 mg/mL Pluronic Acid, 7 μg/mL Glutamate Pyruvate Transaminase and 2 mM sodium pyruvate. Afterwards cells are washed twice with buffer B. Then cells are detached using StemPro Accutase (Fisher Scientific), resuspended in buffer B and seeded in 384 well plate at a density of 30,000 cells per well. Addition of compounds and intracellular Ca^2+ measurements (excitation 485 nm, emission 525 nm) are performed by the fluorescence microplate reader FLIP^Tetra (Molecular Devices).
Agonist and positive allosteric modulator activities of compounds are consecutively evaluated on the same cell plate. Agonist activity is first tested during 10 minutes with the addition of compound alone on the cells. Then, cells are stimulated by an EC20 glutamate concentration and fluorescence is recorded for additional 3 minutes. EC20 glutamate concentration is the concentration giving 20% of the maximal glutamate response. Agonist or positive allosteric modulator activity(ies) are evaluated in comparison to basal signals evoked by buffer B or EC20 glutamate alone, respectively.

T1 sequence (Q14833 33-912): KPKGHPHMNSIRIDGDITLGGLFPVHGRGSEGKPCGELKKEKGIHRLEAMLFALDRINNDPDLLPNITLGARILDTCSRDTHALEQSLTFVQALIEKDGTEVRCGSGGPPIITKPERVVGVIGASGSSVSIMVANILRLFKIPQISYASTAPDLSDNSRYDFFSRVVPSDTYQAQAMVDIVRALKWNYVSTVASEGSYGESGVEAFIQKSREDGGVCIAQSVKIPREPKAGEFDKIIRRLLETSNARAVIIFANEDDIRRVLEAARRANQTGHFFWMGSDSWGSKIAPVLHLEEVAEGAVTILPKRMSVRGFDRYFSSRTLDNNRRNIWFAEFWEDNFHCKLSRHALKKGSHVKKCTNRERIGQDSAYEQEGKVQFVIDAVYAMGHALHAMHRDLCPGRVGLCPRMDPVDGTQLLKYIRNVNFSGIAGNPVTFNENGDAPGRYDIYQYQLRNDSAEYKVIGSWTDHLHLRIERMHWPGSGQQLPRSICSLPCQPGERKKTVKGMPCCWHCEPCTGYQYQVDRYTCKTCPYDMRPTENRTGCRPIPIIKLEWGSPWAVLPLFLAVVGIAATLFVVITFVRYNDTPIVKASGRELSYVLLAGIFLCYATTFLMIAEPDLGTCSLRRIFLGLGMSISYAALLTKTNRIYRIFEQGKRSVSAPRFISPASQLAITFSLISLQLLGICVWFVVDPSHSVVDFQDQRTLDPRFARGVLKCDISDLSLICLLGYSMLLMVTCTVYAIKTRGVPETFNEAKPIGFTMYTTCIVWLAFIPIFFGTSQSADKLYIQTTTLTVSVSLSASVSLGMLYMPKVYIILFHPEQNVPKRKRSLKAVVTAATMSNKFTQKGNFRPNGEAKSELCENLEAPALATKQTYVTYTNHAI

Structure (SMILES)	EC50
O=c1[nH]c(-c2cc(C(F)(F)F)ccn2)nc2ccc(OCCC3CCOCC3)cc12 [Compound 58, 6-[2-(Tetrahydro-pyran-4-yl)-ethoxy]-2-(4-trifluoromethyl-pyridin-2-yl)-3H-quinazolin-4-one]	100 to 1000 nM
O=c1[nH]c(-c2cc3ccsc3cn2)nc2ccc(OCCCc3ccncc3F)cc12 [Compound 59, 6-[3-(3-Fluoro-pyridin-4-yl)-propoxy]-2-thieno[2,3-c]pyridin-5-yl-3H-quinazolin-4-one]	100 to 1000 nM
Cc1cc(CCCOc2ccc3nc(-c4cc5ccsc5cn4)[nH]c(=O)c3c2)ccn1 [Compound 63, 6-[3-(2-Methyl-pyridin-4-yl)-propoxy]-2-thieno[2,3-c]pyridin-5-yl-3H-quinazolin-4-one hydrochloride]	100 to 1000 nM
Cc1cc(OCCCc2ccncc2)cc2c(=O)[nH]c(-c3cc4ccsc4cn3)nc12 [Compound 65, 8-Methyl-6-(3-pyridin-4-yl-propoxy)-2-thieno[2,3-c]pyridin-5-yl-3H-quinazolin-4-one hydrochloride]	≤ 100 nM
O=c1[nH]c(-c2cc3ccsc3cn2)nc2ccc(OCCCc3ccncc3)nc12 [Compound 66, 6-(3-Pyridin-4-yl-propoxy)-2-thieno[2,3-c]pyridin-5-yl-3H-pyrido[3,2-d]pyrimidin-4-one hydrochloride]	100 to 1000 nM
O=c1[nH]c(-c2cc(C(F)(F)F)ccn2)nc2ncc(OCCCc3ccncc3)cc12 [Compound 68, 6-(3-Pyridin-4-yl-propoxy)-2-(4-trifluoromethyl-pyridin-2-yl)-3H-pyrido[2,3-d]pyrimidin-4-one hydrochloride]	> 10000 nM
O=c1[nH]c(-c2cc(C(F)(F)F)ccn2)nc2cnc(OCCCc3ccncc3)cc12 [Compound 69, 6-(3-Pyridin-4-yl-propoxy)-2-(4-trifluoromethyl-pyridin-2-yl)-3H-pyrido[3,4-d]pyrimidin-4-one hydrochloride]	100 to 1000 nM
O=c1[nH]c(-c2cc3ccsc3cn2)nc2cc(C(F)(F)F)c(OCCCc3ccncc3)cc12 [Compound 70, 6-(3-Pyridin-4-yl-propoxy)-2-thieno[2,3-c]pyridin-5-yl-7-trifluoromethyl-3H-quinazolin-4-one hydrochloride]	1000 to 10000 nM
O=c1[nH]c(-c2cc3ccsc3cn2)nc2ccc(OCCCc3ccncc3)c(Cl)c12 [Compound 71, 5-Chloro-6-(3-pyridin-4-yl-propoxy)-2-thieno[2,3-c]pyridin-5-yl-3H-quinazolin-4-one hydrochloride]	> 10000 nM
O=c1[nH]c(-c2cc3ccsc3cn2)nc2c(Cl)cc(OCCCc3ccncc3)cc12 [Compound 72, 8-Chloro-6-(3-pyridin-4-yl-propoxy)-2-thieno[2,3-c]pyridin-5-yl-3H-quinazolin-4-one hydrochloride]	100 to 1000 nM
O=c1[nH]c(-c2cc3ccsc3cn2)nc2c(C3CC3)cc(OCCCc3ccncc3)cc12 [Compound 73, 8-Cyclopropyl-6-(3-pyridin-4-yl-propoxy)-2-thieno[2,3-c]pyridin-5-yl-3H-quinazolin-4-one hydrochloride]	100 to 1000 nM
CCc1cc(OCCCc2ccncc2)cc2c(=O)[nH]c(-c3cc4ccsc4cn3)nc12 [Compound 74, 8-Ethyl-6-(3-pyridin-4-yl-propoxy)-2-thieno[2,3-c]pyridin-5-yl-3H-quinazolin-4-one hydrochloride]	100 to 1000 nM
O=c1[nH]c(-c2cc3ccsc3cn2)nc2c(F)cc(OCCCc3ccncc3)cc12 [Compound 75, 8-Fluoro-6-(3-pyridin-4-yl-propoxy)-2-thieno[2,3-c]pyridin-5-yl-3H-quinazolin-4-one]	100 to 1000 nM
Cc1cc(OCC2CCOCC2)cc2c(=O)[nH]c(-c3cc4ccsc4cn3)nc12 [Compound 76, 8-Methyl-6-(tetrahydro-pyran-4-ylmethoxy)-2-thieno[2,3-c]pyridin-5-yl-3H-quinazolin-4-one]	≤ 100 nM
Cc1cc(OCCC2COC2)cc2c(=O)[nH]c(-c3cc4ccsc4cn3)nc12 [Compound 77, 8-Methyl-6-(2-oxetan-3-yl-ethoxy)-2-thieno[2,3-c]pyridin-5-yl-3H-quinazolin-4-one]	100 to 1000 nM
